Assay results taken from the supplement of paper PMC11451515.

System: P12-Ichikawa
Assay: cell viability relative to DMSO control; higher = less cytotoxic
Settings: 48 h
How it was run: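 Viability is a per-plate percentage relative to DMSO wells, with cell-free wells as background. CellTiter-Glo One luminescence was read after 48 h at 37°C on 1536-well plates (5 μl) of NOMO1 or SEM (500 cells/well) or P12-Ichikawa (1000 cells/well) leukemia cells. The cells had been adapted for at least four passages in each medium and pin-dosed with library compounds in DMSO from 47 μM to 0.79 nM in 11 threefold steps.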

[1] = HPLM + 10% dialyzed FBS, 0.000781 µM
[2] = HPLM + 10% dialyzed FBS, 0.00234 µM
[3] = HPLM + 10% dialyzed FBS, 0.00702 µM
[4] = HPLM + 10% dialyzed FBS, 0.0211 µM
[5] = HPLM + 10% dialyzed FBS, 0.0632 µM
[6] = HPLM + 10% dialyzed FBS, 0.19 µM
[7] = HPLM + 10% dialyzed FBS, 0.569 µM
[8] = HPLM + 10% dialyzed FBS, 1.71 µM
[9] = HPLM + 10% dialyzed FBS, 5.12 µM
[10] = HPLM + 10% dialyzed FBS, 15.4 µM
[11] = HPLM + 10% dialyzed FBS, 46.1 µM
[12] = RPMI 5 mM glucose + 10% FBS, 0.000781 µM
[13] = RPMI 5 mM glucose + 10% FBS, 0.00234 µM
[14] = RPMI 5 mM glucose + 10% FBS, 0.00702 µM
[15] = RPMI 5 mM glucose + 10% FBS, 0.0211 µM
[16] = RPMI 5 mM glucose + 10% FBS, 0.0632 µM
[17] = RPMI 5 mM glucose + 10% FBS, 0.19 µM
[18] = RPMI 5 mM glucose + 10% FBS, 0.569 µM
[19] = RPMI 5 mM glucose + 10% FBS, 1.71 µM
[20] = RPMI 5 mM glucose + 10% FBS, 5.12 µM
[21] = RPMI 5 mM glucose + 10% FBS, 15.4 µM
[22] = RPMI 5 mM glucose + 10% FBS, 46.1 µM
[23] = RPMI 5 mM glucose + 10% dialyzed FBS, 0.000781 µM
[24] = RPMI 5 mM glucose + 10% dialyzed FBS, 0.00234 µM
[25] = RPMI 5 mM glucose + 10% dialyzed FBS, 0.00702 µM
[26] = RPMI 5 mM glucose + 10% dialyzed FBS, 0.0211 µM
[27] = RPMI 5 mM glucose + 10% dialyzed FBS, 0.0632 µM
[28] = RPMI 5 mM glucose + 10% dialyzed FBS, 0.19 µM
[29] = RPMI 5 mM glucose + 10% dialyzed FBS, 0.569 µM
[30] = RPMI 5 mM glucose + 10% dialyzed FBS, 1.71 µM
[31] = RPMI 5 mM glucose + 10% dialyzed FBS, 5.12 µM
[32] = RPMI 5 mM glucose + 10% dialyzed FBS, 15.4 µM
[33] = RPMI 5 mM glucose + 10% dialyzed FBS, 46.1 µM

| Structure (SMILES) | cell viability [1] [%] | cell viability [2] [%] | cell viability [3] [%] | cell viability [4] [%] | cell viability [5] [%] | cell viability [6] [%] | cell viability [7] [%] | cell viability [8] [%] | cell viability [9] [%] | cell viability [10] [%] | cell viability [11] [%] | cell viability [12] [%] | cell viability [13] [%] | cell viability [14] [%] | cell viability [15] [%] | cell viability [16] [%] | cell viability [17] [%] | cell viability [18] [%] | cell viability [19] [%] | cell viability [20] [%] | cell viability [21] [%] | cell viability [22] [%] | cell viability [23] [%] | cell viability [24] [%] | cell viability [25] [%] | cell viability [26] [%] | cell viability [27] [%] | cell viability [28] [%] | cell viability [29] [%] | cell viability [30] [%] | cell viability [31] [%] | cell viability [32] [%] | cell viability [33] [%] |
| --- | --- | --- | --- | --- | --- | --- | --- | --- | --- | --- | --- | --- | --- | --- | --- | --- | --- | --- | --- | --- | --- | --- | --- | --- | --- | --- | --- | --- | --- | --- | --- | --- | --- |
| O=C1N\2CCC3=C([NH]C4=C3C=CC=C4)C2=N/C5=CC=CC=C15 | 119 | 120 | 128 | 126 | 129 | 130 | 129 | 129 | 132 | 113 | 92.3 |  |  |  |  |  |  |  |  |  |  |  |  |  |  |  |  |  |  |  |  |  |  |
| CC1(C)CC(O)CC(C)(C)N1[O] | 111 | 112 | 119 | 118 | 128 | 121 | 132 | 124 | 120 | 117 | 119 | 110 | 111 | 109 | 110 | 126 | 134 | 125 | 114 | 119 | 119 | 116 | 107 | 122 | 113 | 120 | 125 | 129 | 125 | 134 | 127 | 127 | 126 |
| CN[S+](=O)([O-])CCc1ccc2[nH]cc(C3CCN(C)CC3)c2c1 | 95.6 | 98.2 | 99.7 | 99.5 | 101 | 103 | 108 | 102 | 112 | 103 | 105 | 91.6 | 91.6 | 84.7 | 96 | 101 | 100 | 101 | 107 | 102 | 98 | 101 | 87.8 | 94.2 | 96.4 | 94.4 | 99.9 | 99 | 107 | 96.3 | 97.4 | 101 | 98.9 |
| CC(C)NCC(O)COc1ccc(CCOCC2CC2)cc1 (stereo not drawn) | 121 | 118 | 113 | 117 | 113 | 126 | 115 | 113 | 111 | 118 | 120 | 120 | 123 | 118 | 121 | 125 | 121 | 131 | 126 | 118 | 104 | 123 | 121 | 121 | 112 | 116 | 122 | 116 | 110 | 119 | 113 | 107 | 115 |
| Cc1cn(CCN2CCN(c3ccccc3-c3cc(C#N)cc(C(=O)NCCCN4CCCC4)c3)CC2)c2ccccc12 | 110 | 109 | 106 | 104 | 109 | 115 | 119 | 120 | 91.2 | 8.78 | 6.19 | 107 | 107 | 103 | 115 | 118 | 118 | 124 | 103 | 90.8 | 23.2 | 15.6 | 118 | 119 | 117 | 117 | 124 | 126 | 128 | 111 | 93 | 26.9 | 19.9 |
